Assay [1] relates to ras protein farnesylation in ras-transformed cells (H-ras-transformed HIH 3T3 cells). Kind of assay: Gel shift assay (inhibition of ras farnesylation in cells). The following applies: for Gel Shift (μM) M.E.D* (minimal effective dose to observe inhibition of ras farnesylation): ras-transformed cells, 18-hour incubation. The format is cell-based. How it is done:
Twenty-four hours after planting 2×10^6 ras-transformed cells per treatment condition, the farnesylation inhibitor is added at varying concentrations. Following an 18-hour incubation period, cells are lysed in phosphate-buffered saline containing 1% Triton X-100, 0.5% sodium deoxycholate, and 0.1% SDS (sodium dodecyl sulfate), pH 7.4 in the presence of several protease inhibitors (PMSF (phenylmethylsulfonylfluoride), antipain, leupeptin, pepstatin A, and aprotinin all at 1 μg/mL). Ras protein is immunoprecipitated from the supernatants by the addition of 3 μg v-H-ras Ab-2 (Y13-259 antibody from Oncogene Science). After overnight immunoprecipitation, 30 μL of a 50% protein G-Sepharose slurry (Pharmacia) is added followed by 45-minute incubation. Pellets are resuspended in 2×tris-glycine loading buffer (Novex) containing 5% β-mercaptoethanol and then denatured by 5 minutes boiling prior to electrophoresis on 14% Tris-glycine SDS gels. Using Western transfer techniques, proteins are transferred to nitrocellulose membranes followed by blocking in blocking buffer. Upon overnight incubation with primary antibody (pan-ras Ab-2 from Oncogene Science), an antimouse HRP (horse radish peroxidase) conjugate secondary antibody (Amersham) is employed for detection of the ras protein. Blots are developed using ECL(enhanced chemiluminescence) techniques (Amersham).

The subject of assay [2] is H61 cells: N1H transformed 3T3 H-ras cells. As to the kind of experiment: Clonogenic assay (soft agar, 6 well plates). The class given is cell-based. The settings on record: H-ras transformed NIH 3T3 cells, colonies counted after Day 13, read-out: Soft Agar IC50 (μM), inhibition of colony formation. Here is the method:
Clonogenic Assay (6 Well Plates)
Sometime previous to setting up an actual test:
1. Make up 1.5% Bacto Agar in Milli-Q water and autoclave.
2. Make up 500 mL 2×DMEM-HG without phenol red by combining the following:
1 bottle DMEM base powder (Sigma D-5030)
Adjust pH to 7.1 with HCl; filter sterilize.
1. Set up makeshift water bath (beaker of water with thermometer, on hot plate) in the hood. Keep water temperature between 37° C. to 43° C.
2. […] 1.5% Bacto Agar for approximately 2 minutes on high, or until completely melted. Then let it cool somewhat before using it. (You can keep it from resolidifying by setting the bottle on the hot plate.)
Depending on the volume of each layer needed, use either 50 mL conical tubes or 200 mL turnip tubes which can be floated in the “water bath”.
4. Add 1 mL of bottom layer agar/medium to each well: deliver 1 mL warm agar/medium to a well; then using the tip of the pipet, spread the agar/medium around to completely cover the bottom. Repeat with next well.
5. Allow the plates to set at room temperature for about 5 minutes until the bottom layer solidifies.
6. Label sterile Falcon 2054 (12×75 mm) tubes and add appropriate volume of drug solutions into them.
7. Aliquot 4 μL of DMSO or drug solution per 1 mL of agar/medium to appropriate tubes; then add the agar/medium/cells to each tube. Always add 1 mL more than will actually be needed. Mix up and down in the pipet (gently); then deliver 1 mL to the center of each well. The upper layer is less viscous, so it will generally spread out over the bottom layer unaided. If necessary, rotate the plane of the plate gently to spread the top layer evenly over the bottom layer.
8. Let plates set for 5 or 10 minutes at room temperature to solidify, then put into 5% CO2, 37° C. incubator.
9. On Day 13, add 0.5 mL of INT (tetrazolium 1 mg/mL in Milli-Q H2O, filter sterilized) and return plates to incubator.

Assay [3] deals with T1, SF9 affinity purified rat farnesyl protein transferase (Rattus norvegicus, UniProt Q02293+Q04631).
T1 construct: made in house; host or cells: Sf9 insect cells
As to the kind of experiment: PFT (farnesyl protein transferase) inhibitory activity assay. The class given is biochemical. How it is done: The protein:farnesyl transferase (PFT) or farnesyl protein transferase (FPT) inhibitory activity of compounds of the present invention were assayed in HEPES buffer (pH 7.4) containing 5 mM potassium phosphate and 20 μM ZnCl2. The solution also contained 5 mM DTT (dithiothreitol), 5 mM MgCl2, and 0.1% PEG 8000. Assays were performed in 96-well plates (Wallec) and employed solutions composed of varying concentrations of a compound of the present invention in 100% DMSO (dimethylsulfoxide). Upon addition of both substrates, radiolabeled farnesyl pyrophosphate ([1^3H], specific activity 15 to 30 Ci/mmol, final concentration 134 nM) and (biotinyl)-Ahe-Thr-Lys-Cys-Val-Ile-Met ([3aS[3a alpha, 4 beta, 6a alpha]-hexahydro-2-oxo-1H-thieno[3,4-d]imidazole-5-pentanoic acid]-[7-aminoheptanoic acid]-Thr-Lys-Cys-Val-Ile-Met) (Ahe is 7-amino-heptanoic acid, Thr is threonine, Lys is lysine, Cys is cysteine, Val is valine, Ile is isoleucine and Met is methionine) (final concentration 0.2 μM), the enzyme reaction was started by addition of SF9 affinity purified rat farnesyl protein transferase. After incubation at 30° C. for 30 minutes, the reaction was terminated by diluting the reaction 2.5-fold with a stop buffer containing 1.5 M magnesium acetate, 0.2 M H3PO4, 0.5% BSA (bovine serum albumin), and strepavidin beads (Amersham) at a concentration of 1.3 mg/mL. After allowing the plate to settle for 30 minutes at room temperature, radioactivity was quantitated on a microBeta counter (Model 1450, Wallec). The assay was also carried out without 5 mM potassium phosphate.

In assay [4] the test system is EJ-1 human bladder carcinoma, HT1080 human fibrosarcoma, and human colon carcinoma xenografts. The following applies: 100 mg/kg, nude mice; cited from earlier work.
The test system of assay [5] is human lung carcinoma with K-ras mutation and p53 deletion. The following applies: nude mice; cited from earlier work.
Assay [6] deals with mammary and salivary carcinomas. The settings on record: daily administration, ras transgenic mice; cited from earlier work.
The mark [7] stands for this setting: HEPES buffer pH 7.4, without 5 mM potassium phosphate, read-out: IC50 (μM) Hepes.
Where [8] appears, read: HEPES buffer pH 7.4 containing 5 mM potassium phosphate, read-out: IC50 (μM) 5 mM PO4•^2 Hepes.
[9] abbreviates: Example 2 compared with Example 1.

The source of these data is US6737410B1, “Inhibitors of protein farnesyl transferase” (Warner-Lambert Company, priority 1997, dated 2004).

Where two headings read alike, the source gives them in different places.

For `CN(C(=O)[C@@H](Cc1c[nH]cn1)NC(=O)OCc1ccccc1)[C@@H](Cc1ccc(OCc2ccccc2)cc1)C(=O)NCCOCc1ccccc1` (relative stereo) [Example 1, [R-(R*,S*)]-[1-{[1-(2-Benzyloxy-ethylcarbamoyl)-2-(4-benzyloxy-phenyl)-ethyl]-methyl-carbamoyl}-2-(1H-imidazol-4-yl)-ethyl]-carbamic acid benzyl ester], the “Gel Shift (μM) M.E.D* (minimal effective dose to observe inhibition of ras farnesylation)” value in assay [1] amounted to 1 µM. Moreover, the results for the IC50 in assay [2], in assay [3] (setting [7]) and in assay [3] (setting [8]) were 15.1 µM, 7 µM and 0.4 µM, respectively. The “activity as a ras farnesyl transferase inhibitor” value in assay [3] (stated in words) was “submicromolar”.

As to `CN(C(=O)[C@H](Cc1c[nH]cn1)NC(=O)OCc1ccccc1)[C@@H](Cc1ccc(OCc2ccccc2)cc1)C(=O)NCCc1ccccc1` (relative stereo) [Example 2, [S-(R*,R*)]-[1-{[2-(4-Benzyloxy-phenyl)-1-phenethylcarbamoyl-ethyl]-methyl-carbamoyl}-2-(1H-imidazol-4-yl)-ethyl]-carbamic acid benzyl ester], the “increase in cellular activity” value in assay [1] (setting [9]) worked out at 5 fold. Besides, the “Gel Shift (μM) M.E.D* (minimal effective dose to observe inhibition of ras farnesylation)” value in assay [1] stood at 0.2 µM. The IC50 turned out to be 0.58 µM in assay [2], 1.4 µM in assay [3] (setting [7]) and 0.032 µM in assay [3] (setting [8]). The “increase in activity against the enzyme” value in assay [3] (setting [9]) is 10 fold.

As for `CN(C(=O)[C@H](Cc1cnc[nH]1)NC(=O)OCc1ccccc1)[C@@H](Cc1ccc(OCc2ccccc2)cc1)C(=O)NCC1(c2ccccc2)CCC1` (relative stereo) [Example 6, [S-(R*,R*)]-[1-{[2-4-Benzyloxy-phenyl)-1-[(1-phenyl-cyclobutylmethyl)-carbamoyl]-ethyl}-methyl-carbamoyl)-2-(3H-imidazol-4-yl)-ethyl]-carbamic acid benzyl ester], the “Gel Shift (μM) M.E.D* (minimal effective dose to observe inhibition of ras farnesylation)” value in assay [1] was “≦0.05 μM”. The IC50 in assay [3] (setting [7]) was 1.01 µM; in assay [3] (setting [8]), 0.013 µM.

For the compound `CN(C(=O)[C@H](Cc1c[nH]cn1)NC(=O)OCc1ccccc1)[C@@H](Cc1ccc(OCc2ccccc2)cc1)C(=O)NCC(C)(C)c1ccccc1` [Example 3, [S-(R*,R*)]-[1-{[2-(4-Benzyloxy-phenyl)-1-(2-methyl-2-phenyl-propylcarbamoyl)-ethyl]-methyl-carbamoyl}-2-(1H-imidazol-4-yl)-ethyl]-carbamic acid benzyl ester], the “Gel Shift (μM) M.E.D* (minimal effective dose to observe inhibition of ras farnesylation)” value in assay [1] was 0.05 µM. Also, the IC50 is 0.1 µM in assay [2] (Mus musculus, NIH3T3, 312 h); 0.31 µM in assay [3] (setting [7]); 0.007 µM in assay [3] (setting [8]).

On to `CN(C(=O)[C@H](Cc1c[nH]cn1)NC(=O)OCc1ccccc1)[C@@H](Cc1ccc(OCc2ccccn2)cc1)C(=O)NCC(C)(C)c1ccccc1` [Example 4, [S-(R*,R*)]-[2-(1H-Imidazol-4-yl)-1-(methyl-{1-(2-methyl-2-phenyl-propylcarbamoyl)-2-[4-(pyridin-2-ylmethoxy)-phenyl]-ethyl}-carbamoyl)-ethyl]-carbamic acid benzyl ester], for which, in assay [1], the “Gel Shift (μM) M.E.D* (minimal effective dose to observe inhibition of ras farnesylation)” value is given as “≦0.05 μM”. Also, the IC50 in assay [3] (setting [7]) was found to be 0.38 µM; in assay [3] (setting [8]), 0.006 µM.

For the compound `CN(Cc1ccccc1)C(=O)N[C@@H](Cc1c[nH]cn1)C(=O)N(C)[C@@H](Cc1ccc(OCc2ccccc2)cc1)C(=O)NCC(C)(C)c1ccccc1` [Example 5, [S-(R*,R*)]-2(3-Benzyl-3-methyl-ureido)-N-[2-(4-benzyloxy-phenyl)-1-(2-methyl-2-phenyl-propyl-carbamoyl)-ethyl]-3-(1H-imidazol-4-yl)-N-methyl-propionamide], the “Gel Shift (μM) M.E.D* (minimal effective dose to observe inhibition of ras farnesylation)” value in assay [1] is “≦0.05 μM”. The concentration for half-maximal inhibition (IC50) in assay [3] (setting [7]) was determined as 0.012 µM; in assay [3] (setting [8]), 0.008 µM.

For `CN(C(=O)[C@H](Cc1cnc[nH]1)NC(=O)OCc1ccccc1)[C@@H](Cc1ccccc1)C(=O)NCC(C)(C)c1ccccc1` [Example 7, [S-(R*,R*)]-(2-(3H-Imidazol-4-yl)-1-{methyl-[1-(2-methyl-2-phenyl-propyl-carbamoyl)-2-phenyl-ethyl]-carbamoyl}-ethyl)-carbamic acid benzyl ester], in assay [1], the “Gel Shift (μM) M.E.D* (minimal effective dose to observe inhibition of ras farnesylation)” value was “≦0.05 μM”. Further, the IC50 amounted to 0.26 µM in assay [3] (setting [7]) and 0.005 µM in assay [3] (setting [8]).

With `CC(C)C[C@@H](C(=O)NCC(C)(C)c1ccccc1)N(C)C(=O)[C@H](Cc1cnc[nH]1)NC(=O)OCc1ccccc1` [Example 8, [S-(R*,R*)]-(2-(3H-Imidazol-4-yl)-1-{methyl-[3-methyl-1-(2-methyl-2-phenyl-propylcarbamoyl)-butyl]-carbamoyl}-ethyl)-carbamic acid benzyl ester], the “Gel Shift (μM) M.E.D* (minimal effective dose to observe inhibition of ras farnesylation)” value in assay [1] is “≦0.05 μM”. The IC50 is 1.76 µM in assay [3] (setting [7]) and 0.01 µM in assay [3] (setting [8]).

As for `COC(=O)[C@H](CCSC)NC(=O)[C@H](/C=C\[C@@H](/C=C/[C@@H](N)CS)C(C)C)Cc1ccccc1` [Example B1086], in assay [4], the “tumor growth by xenografts” value is given as “inhibit tumor growth”.

In the case of `CSCC[C@H](NC(=O)c1ccc(NC[C@@H](N)CS)cc1-c1ccccc1)C(=O)O` [FT1276], the “tumor growth of human lung carcinoma” value in assay [5] is “selectively block tumor growth”.

Take `CC[C@H](C)[C@@H](CO[C@@H](Cc1ccccc1)C(=O)N[C@@H](CCS(C)(=O)=O)C(=O)OC(C)C)NC[C@@H](N)CS` [L744,832]: the “effect on mammary and salivary carcinomas” value in assay [6] is “tumor regression”.

Usually IC50 stands for the concentration that inhibits the measured activity by half.
